Test systems include MDA-N; HCT-15 colon; MALME-3M melanoma; NCI-H522 lung; HCT-116 colon; HOP-92 NSCLC; ACHN renal; SF-268 CNS; MDA-MB-435; OVCAR-8 ovarian; SN12C renal.
Holding throughout (test): NCI-60 cell line screen, 48 h

Experimental findings from PubChem BioAssay (NCI) are described below.

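Interpolation was linear, between the two tested concentrations surrounding the appropriate level; five concentrations were tested over 48 hours in 96-well plates. At the TGI there is no net growth.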

Regarding `Cc1csc2nc(-c3ccc([N+](=O)[O-])cc3)c(/C=N/N=C(N)N)n12`, the TGI in the assay on MDA-N turned out to be 3.51 µM; in the assay on HCT-15 colon, 1.68 µM; in the assay on MALME-3M melanoma, 3.61 µM; with NCI-H522 lung, 3.08 µM; with HCT-116 colon, 3.76 µM; in the assay with HOP-92 NSCLC, 2.22 µM. Also, the TGI in the assay on ACHN renal was found to be 2.71 µM; in the assay on SF-268 CNS it was 3.29 µM; in the assay with MDA-MB-435 it was 3.16 µM; with OVCAR-8 ovarian it was 2.68 µM; in the assay with SN12C renal, 3.28 µM.
Take `O=C1c2cc3ccccc3cc2C2(c3ccc(Cl)cc3)N[C@H]3CCCC[C@@H]3N12` (stereo partly drawn): the TGI in the assay with MDA-N was 57.8 µM; in the assay on HCT-15 colon, above 100 µM; in the assay on MALME-3M melanoma, 36.8 µM; in the assay on HCT-116 colon it was 18.8 µM; in the assay on HOP-92 NSCLC it was 98.5 µM; in the assay with ACHN renal it was 38.7 µM. Further, the TGI amounted to 39 µM in the assay on SF-268 CNS, 93 µM with MDA-MB-435, 19.4 µM in the assay with OVCAR-8 ovarian and 43.8 µM with SN12C renal.
Regarding `CCOP(=O)(Nc1ccc(-c2ccccc2)cc1)OCC`, the TGI in the assay on MDA-N, in the assay on HCT-15 colon, in the assay with MALME-3M melanoma, in the assay on NCI-H522 lung, in the assay on HCT-116 colon and with HOP-92 NSCLC was above 100 µM each time. Besides, the TGI with ACHN renal, in the assay on SF-268 CNS, with MDA-MB-435 and with OVCAR-8 ovarian was above 100 µM in each case.
Take `CCC1CC2CN3CCc4c([nH]c5c(-c6c(OC)ccc7c8c([nH]c67)[C@]6(C(=O)OC)CC7CC(CC)C6N(CC8)C7)c(O)ccc45)[C@](C(=O)OC)(C2)C13` (stereo partly drawn): the TGI was found to be 24.6 µM in the assay on MDA-N; 31.4 µM with HCT-15 colon; 31.6 µM in the assay on NCI-H522 lung; 25.7 µM with HCT-116 colon; 26.6 µM in the assay on HOP-92 NSCLC; 64 µM in the assay with ACHN renal. Further, the TGI with SF-268 CNS was 32.9 µM; with MDA-MB-435 it was 23.6 µM; in the assay on OVCAR-8 ovarian it was 49.7 µM.
Regarding `C1COC(NC(C2CC2)C2CC2)=N1`, the TGI in the assay with MDA-N, in the assay with HCT-15 colon, with MALME-3M melanoma, in the assay on NCI-H522 lung, in the assay with HCT-116 colon and in the assay with HOP-92 NSCLC was above 100 µM each time. Besides, the TGI with ACHN renal, in the assay on MDA-MB-435 and in the assay with OVCAR-8 ovarian was above 100 µM throughout.
Take `COc1ccc(/C=C2\CSC/C(=C\c3ccc(OC)c(OC)c3OC)C2=O)c(OC)c1OC`: the TGI in the assay with MDA-N is above 100 µM; in the assay on HCT-15 colon, 74.1 µM; in the assay on MALME-3M melanoma, 27.6 µM; in the assay with HCT-116 colon, 39 µM; in the assay on HOP-92 NSCLC, 96.1 µM; with ACHN renal it was 52.9 µM. In addition, the TGI is above 100 µM in the assay with SF-268 CNS, 80.8 µM with OVCAR-8 ovarian and 78.2 µM in the assay on SN12C renal.
Consider `COP(C)(=O)/C(Cc1ccccc1)=N\O` (stereo not drawn), for which the TGI in the assay on MDA-N, in the assay on HCT-15 colon, with HCT-116 colon, with HOP-92 NSCLC, in the assay with ACHN renal and in the assay on MDA-MB-435 was above 100 µM throughout. Besides, the TGI with OVCAR-8 ovarian and with SN12C renal was above 100 µM each time.
`COc1cccc2cc(C(N)=O)c(=N)oc12`: the TGI was above 100 µM in the assay with MDA-N; above 100 µM with HCT-15 colon; 45.9 µM with MALME-3M melanoma; above 100 µM with HCT-116 colon; above 100 µM with HOP-92 NSCLC; above 100 µM in the assay on ACHN renal. Moreover, the TGI with SF-268 CNS, in the assay on MDA-MB-435, in the assay on OVCAR-8 ovarian and in the assay on SN12C renal was above 100 µM each time.
On to `CN(C)CCNc1ccc([N+](=O)[O-])c2nc3ccccc3c(N)c12`, for which the TGI is 2.09 µM in the assay with MDA-N; 4.01 µM with HCT-15 colon; 3.12 µM in the assay with MALME-3M melanoma; 1.91 µM in the assay with HCT-116 colon; 7.71 µM in the assay on HOP-92 NSCLC; 3.51 µM in the assay with ACHN renal. Also, the TGI in the assay on SF-268 CNS is 3.94 µM; in the assay with MDA-MB-435, 2.61 µM; in the assay with OVCAR-8 ovarian it was above 10 µM; with SN12C renal, above 10 µM.
As to `CC1CCCC2=C1C(c1ccc(Cl)cc1)n1c(s/c(=C\c3ccc(Cl)cc3)c1=O)=N2` (stereo not drawn), the TGI in the assay on MDA-N, in the assay with HCT-15 colon, in the assay on HCT-116 colon, in the assay on HOP-92 NSCLC, in the assay with ACHN renal and in the assay on SF-268 CNS was above 100 µM throughout. Moreover, the TGI in the assay on MDA-MB-435, in the assay with OVCAR-8 ovarian and in the assay on SN12C renal was above 100 µM each time.
`CCP(=O)(CC)C(Cl)(Cl)C(O)C(C)(C)C` (stereo not drawn): the TGI in the assay on MDA-N, in the assay with HCT-15 colon, in the assay on NCI-H522 lung, with HCT-116 colon, with HOP-92 NSCLC and in the assay with ACHN renal was above 100 µM each time. For the same compound, the TGI with MDA-MB-435, in the assay with OVCAR-8 ovarian and in the assay with SN12C renal was above 100 µM throughout.
In the case of `COC(=O)C(CCC1C=CCC1)N=Cc1ccccc1` (stereo not drawn), the TGI with MDA-N, in the assay with HCT-15 colon, in the assay with NCI-H522 lung, in the assay on HCT-116 colon, in the assay with HOP-92 NSCLC and in the assay on ACHN renal was above 100 µM each time. Also, the TGI with SF-268 CNS, in the assay on MDA-MB-435, in the assay with OVCAR-8 ovarian and with SN12C renal was above 100 µM throughout.
Consider `Cc1cccc(Nc2cn(COCc3ccccc3)c(=O)[nH]c2=O)c1`, for which the TGI in the assay on MDA-N was above 100 µM; with HCT-15 colon it was above 100 µM; in the assay with NCI-H522 lung, 97.2 µM; with HCT-116 colon it was above 100 µM; with HOP-92 NSCLC, above 100 µM; in the assay with ACHN renal, above 100 µM. Also, the TGI in the assay on SF-268 CNS, in the assay on MDA-MB-435 and in the assay on SN12C renal was above 100 µM each time.
As for `COC(=O)CC1(CNC(=O)OCc2ccccc2)OCCO1`, the TGI in the assay on MDA-N, in the assay with HCT-15 colon, with MALME-3M melanoma, with NCI-H522 lung, with HCT-116 colon and in the assay with HOP-92 NSCLC was above 100 µM in each case. Besides, the TGI in the assay with ACHN renal, in the assay with MDA-MB-435, in the assay on OVCAR-8 ovarian and with SN12C renal was above 100 µM throughout.
